Columns and labels:
MDAMB231 [1] = experiment: Soft agar colony-formation assay, breast cancer; type: cell-based; conditions: for anticancer activity in comparison with cisplatin, soft agar, breast cancer cell line: FIG. 51, MDAMB231; for IC50: Homo sapiens, MDA-MB-231, 168 h, Soft Agar Assay, 1 week, Alamar Blue
Method: (§1) The Soft Agar Colony-formation Assay is an anchorage-independent growth assay in soft agar, which is one of the most stringent assays for detecting malignant transformation of cells. For this assay, malignant cells are cultured with appropriate controls in soft agar medium for 1-2 weeks. Following this incubation period, formed colonies can either be analyzed morphologically using cell stain and quantifying the number of colonies formed.
(§2) Briefly, for Soft Agar Assay a mixture of 50 ul of 2× medium (taken appropriately as per cell line) and 50 ul of 1.2% Bacto Agar were plated on to each well of 96 well micro titer assay plate. 10 ul of cells (of specific plating efficiency pre standardized for respective cell line) were mixed with 20 ul of 2× medium and 30 ul of 0.8% of Bacto Agar and 1.6 ul of drug (of appropriate concentration) in a vial and transferred to the solidified pre layers of the assay plates. The cells were then allowed to grow and form colonies at 37° C. and 5% CO2 for 1 week. An intermittent feeding with 50 ul of appropriate 2× medium was performed after 3 days of experimental set up. 16 ul of Alamar Blue (1.5 mg/ml) was then added to all the wells to quantify the developed colonies. The plates were incubated for 24 hrs at 37° C. Absorbance was then measured at 630 nm. XY graph of log Percent viability was then plotted against log drug concentration.
(§3) Following plating efficiencies were standardized for Soft Agar Assay: […]

PC3 [2] = experiment: In vitro antiproliferative assay (MTT assay), prostate cancer cell line; type: cell-based; conditions: Homo sapiens, PC-3, 48 h, MTT assay, prostate cancer PC3, 48 hrs drug incubation
Method: (§4) MTT assay is a simple and sensitive assay where, metabolic reducing activity of the cells is measured. The increase of this activity in time is taken as a parameter of cell growth. If treatment with a drug impairs this increase, the action is a consequence of growth inhibition, cell killing or both. […] All cell lines were cultured in a 37° C. incubator with a 5% CO2 environment. Compounds were dissolved in DMSO with a concentration of 0.1M (stock solution). Cells were seeded into 96-well plates at suitable plating efficiency.
(§5) Following plating efficiencies were standardized for MTT assay:
(§6) In the MTT procedure, the cells were plated in 96 well plates as per predetermined plating efficiency (Table1). The plates were then incubated for 24 hrs in 5% CO2 atmosphere at 37° C. Appropriate concentrations of the drugs were then added to the plate and further incubation was carried out for 48 hrs (in 5% CO2 atmosphere at 37° C.). The assay plate was then centrifuged twice at 3000 rpm for 3 mins and supernatant was then discarded. 100 ul of MTT solution (0.5 mg/ml) was then added to each well of the plate and it was further incubated for 4 hrs (in 5% CO2 atmosphere at 37° C.) Following 4 hr incubation, the plate was then centrifuged twice, and supernatant was aspirated off very carefully. 200 ul of DMSO was then added to each well to solubilize. MTT crystals and mixed well by shaking the plate. XY graph of log percent viability was then plotted against log drug concentration.

Human lymphocytes = experiment: Lymphocyte assay (MTT on normal cells); type: cell-based; conditions: human peripheral blood lymphocytes, MTT procedure
Method: Human lymphocytes were isolated from the peripheral blood. A pure population of lymphocytes was obtained based on differential centrifugation, in which diluted defibrinated blood was layered on a solution of sodium diatrizoate and polysucrose (HiSep LSM 1077) and centrifuged at low speeds for 30 mins.
Procedure: The separation of lymphocytes from fresh defibrinated blood was performed by the procedure described below: • 1. Diluted defibrinated fresh blood was overlaid gradually on (HiSeP LSM1077) and centrifuged at low speed for 30 mins. • 2. The lymphocyte layer (the buffy coat) was carefully removed in a new collection tube. • 3. The buffy coat was given another wash, by the diluent buffer Dulbecco's phosphate buffered saline (D.P.B.S) • 4. The supernatant was discarded and the pellet was resuspended in D.P.B.S. • 5. The viability of cells was checked by Haemocytometer. • 6. Cells with purity and viability of more than 95% were taken for the experiment. • 7. Purified lymphocytes were diluted at a concentration of 0.7 million/ml with sterile D.P.B.S and MTT procedure was performed exactly as described earlier.

PC3 [3] = experiment: Soft agar colony-formation assay, prostate cancer; type: cell-based; conditions: for anticancer activity in comparison with cisplatin, soft agar, prostate cancer cell line: FIG. 52, PC3; for IC50: Homo sapiens, PC-3, 168 h, Soft Agar Assay, 1 week, Alamar Blue
Method: as §1, §2, §3

MDAMB231 [4] = experiment: In vitro sphere-forming assay (cancer stem cells), Mammosphere media; conditions: for viability at 0.0025 µM / viability at 0.025 µM / viability at 0.25 µM / viability at 2.5 µM / viability at 25 µM: Homo sapiens, MDA-MB-231, read-out: % Viability of spheres (MDAMB231); for 3D sphere count of MDAMB231: Mammosphere media, 2000 cells/well, n = 6 ± S.D
MDAMB231 [5] = experiment: In vitro antiproliferative assay (MTT assay), breast cancer cell line; type: cell-based; conditions: Homo sapiens, MDA-MB-231, 48 h, MTT assay, breast cancer MDAMB231, 48 hrs drug incubation
Method: as §4, §5, §6

PC3 [6] = experiment: In vitro sphere-forming assay (cancer stem cells), Prostosphere media; conditions: for viability at 0.0025 µM / viability at 0.025 µM / viability at 0.25 µM / viability at 2.5 µM / viability at 25 µM: Homo sapiens, PC-3, read-out: % Viability of spheres (PC3); for 3D sphere count of PC3: Prostosphere media, 2000 cells/well, n = 6 ± S.D

Row | IC50 (MDAMB231 [1]) [µM] | IC50 (PC3 [2]) [µM] | IC50 (PC3 [3]) [µM] | IC50 (MDAMB231 [5]) [µM] | SMILES | anticancer activity in comparison with cisplatin, soft agar, breast cancer cell line (MDAMB231 [1]) | anticancer activity in comparison with cisplatin, soft agar, prostate cancer cell line (PC3 [3]) | viability at 0.0025 µM (MDAMB231 [4]) [%] | viability at 0.025 µM (MDAMB231 [4]) [%] | viability at 0.25 µM (MDAMB231 [4]) [%] | viability at 2.5 µM (MDAMB231 [4]) [%] | viability at 25 µM (MDAMB231 [4]) [%] | 3D sphere count of MDAMB231 (MDAMB231 [4]; drug 0.0025 uM) | 3D sphere count of MDAMB231 (MDAMB231 [4]; drug 0.025 uM) | 3D sphere count of MDAMB231 (MDAMB231 [4]; drug 0.25 uM) | 3D sphere count of MDAMB231 (MDAMB231 [4]; drug 2.5 uM) | 3D sphere count of MDAMB231 (MDAMB231 [4]; drug 25 uM) | viability at 0.0025 µM (PC3 [6]) [%] | viability at 0.025 µM (PC3 [6]) [%] | viability at 0.25 µM (PC3 [6]) [%] | viability at 2.5 µM (PC3 [6]) [%] | further results
1 | 1.63 | 2.73 | 2.67 | 3.06 | COc1ccc(NC2=CC(=O)c3c(OCCCCN4CCOCC4)cccc3C2=O)cc1OC [Formula 41] | higher anticancer activity in comparison with cisplatin | higher anticancer activity in comparison with cisplatin | 86 | 70 | 52 | 34 | 19 | 66(±4) | 54(±4) | 40(±3) | 26(±3) | 15(±3) | 85 | 72 | 54 | 46 | Activity on Lymphocytes (IC50) (Human lymphocytes): No activity; viability at 25 µM (PC3 [6]): 27%; 3D sphere count of PC3 (PC3 [6]; drug 0.0025 uM): 74(±4); 3D sphere count of PC3 (PC3 [6]; drug 0.025 uM): 63(±3); 3D sphere count of PC3 (PC3 [6]; drug 0.25 uM): 47(±5); 3D sphere count of PC3 (PC3 [6]; drug 2.5 uM): 40(±4); 3D sphere count of PC3 (PC3 [6]; drug 25 uM): 24(±4)
2 | 3.17 | 4.11 | 2.21 | 3.09 | O=C1C=C(OCCCCN2CCOCC2)C(=O)c2ccccc21 [Formula 67] | higher anticancer activity in comparison with cisplatin | higher anticancer activity in comparison with cisplatin | 80 | 69 | 56 | 48 | 37 | 67(±2) | 58(±3) | 47(±5) | 40(±5) | 31(±2) | 70 | 64 | 51 | 44 | IC50 (Human lymphocytes; Lymphocyte): 5.15 µM; viability at 25 µM (PC3 [6]): 36%; 3D sphere count of PC3 (PC3 [6]; drug 0.0025 uM): 61(±5); 3D sphere count of PC3 (PC3 [6]; drug 0.025 uM): 56(±3); 3D sphere count of PC3 (PC3 [6]; drug 0.25 uM): 45(±3); 3D sphere count of PC3 (PC3 [6]; drug 2.5 uM): 39(±2); 3D sphere count of PC3 (PC3 [6]; drug 25 uM): 32(±3)

From US20240018132A1, “5-HYDROXY-1,4-NAPHTHALENEDIONE FOR USE IN THE TREATMENT OF CANCER” (GODAVARI BIOREFINERIES LIMITED, priority 2020, published 2024)
